Data published in PMC4494349, “Epitope Prediction Assays Combined with Validation Assays Strongly Narrows down Putative Cytotoxic T Lymphocyte Epitopes” (Vaccines, 2015).

Experiments:
H-2D^b = target: T1, H-2D^b (Mus musculus, UniProt P01899); assay: MHC class I stabilization assay on RMA-S cells, H-2D^b surface expression; type: cell-based; settings: for H-2D^b binder class (weak, intermediate, strong) by stabilization of MHC class I on RMA-S cells: 10 μM (Figure 1a), in words; for MHC I Stabilization Assay, fluorescence index class, H-2D^b: RMA-S cells 26 °C 4 h then 37 °C 1 h, flow cytometry
T1 sequence (P01899 25-362): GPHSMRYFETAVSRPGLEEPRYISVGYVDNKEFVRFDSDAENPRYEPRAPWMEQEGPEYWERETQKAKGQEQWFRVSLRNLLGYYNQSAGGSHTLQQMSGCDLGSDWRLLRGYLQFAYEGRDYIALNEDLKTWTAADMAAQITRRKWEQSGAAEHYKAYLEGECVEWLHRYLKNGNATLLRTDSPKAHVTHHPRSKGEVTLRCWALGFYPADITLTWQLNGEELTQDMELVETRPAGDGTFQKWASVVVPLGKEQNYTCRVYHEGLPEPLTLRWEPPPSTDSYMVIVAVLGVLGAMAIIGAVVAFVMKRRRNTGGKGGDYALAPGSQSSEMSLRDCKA
T1 sequence (P01887 21-119 partner): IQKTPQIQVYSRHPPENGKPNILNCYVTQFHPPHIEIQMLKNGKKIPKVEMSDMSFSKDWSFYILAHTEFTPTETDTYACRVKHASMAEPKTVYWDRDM

H-2K^b = target: T2, H-2K^b (Mus musculus, UniProt P01901); assay: MHC class I stabilization assay on RMA-S cells, H-2K^b surface expression; settings: for MHC I Stabilization Assay, fluorescence index class, H-2K^b: RMA-S cells 26 °C 4 h then 37 °C 1 h, flow cytometry
T2 sequence (P01901 22-369): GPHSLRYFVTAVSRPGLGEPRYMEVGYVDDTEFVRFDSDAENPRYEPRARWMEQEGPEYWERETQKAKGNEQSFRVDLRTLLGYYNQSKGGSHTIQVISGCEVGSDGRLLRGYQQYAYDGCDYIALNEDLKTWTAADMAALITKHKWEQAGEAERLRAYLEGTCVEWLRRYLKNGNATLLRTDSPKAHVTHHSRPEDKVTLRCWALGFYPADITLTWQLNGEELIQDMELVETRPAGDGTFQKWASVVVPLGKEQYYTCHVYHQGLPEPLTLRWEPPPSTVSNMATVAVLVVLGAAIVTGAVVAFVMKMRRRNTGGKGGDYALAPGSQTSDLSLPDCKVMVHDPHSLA
T2 sequence (P01887 21-119 partner): T1 sequence (P01887 21-119 partner)
Description: RMA-S cells were maintained in IMDM (Life Technologies, Bleiswijk, The Netherlands) supplemented with 10% FBS and 100 U/mL penicillin and 100 μg/mL streptomycin (Life Technologies). RMA-S cells were cultured at 26 °C for 48 h to induce expression of MHC class I molecules. Cells were then incubated with various concentrations of synthetic peptides at 26 °C for 4 h, followed by a 1-h culture at 37 °C. […] The surface expression of MHC class I molecules were analyzed by FACSCalibur cytometer (BD Biosciences, Breda, The Netherlands) and data analyzed with FlowJo software (Treestar, Ashland, OR, USA). Fluorescence index was calculated by dividing the median fluorescence intensity (MFI) value of cells incubated with SLPs by the MFI value of cells incubated with equivalent concentration of DMSO.

[1] = synthetic long peptides, peptide concentration 10 μM, FI = MFI peptide / MFI DMSO

Sequence | H-2D^b binder class (weak, intermediate, strong) by stabilization of MHC class I on RMA-S cells (H-2D^b; synthetic long peptides) | MHC I Stabilization Assay, fluorescence index class, H-2D^b (H-2D^b; [1]) | further results
AETTVRLRAYMNTPGLPV [NS3_507-524] | strong (>1.5: strong binders (+++)) | +++ (>1.5 +++) | 
ALGINAVAYYRGLDVSVI [NS3_383-400] | intermediate (0.5–1.5: intermediate binders (++)) | ++ (0.5–1.5 ++) | 
ATPPGSVTVSHPNIEEVA [NS3_323-340] | weak (0.2–0.5: weak binders (+)) | + (Fluorescence index of H-2D^b: 0.2–0.5 +) | 
IQMYTNVDQDLVGWPA [NS3_72-87] | weak (0.2–0.5: weak binders (+)) | + (Fluorescence index of H-2D^b: 0.2–0.5 +) | 
LSQTKQSGENFPYLVAY [NS3_547-563] | intermediate (0.5–1.5: intermediate binders (++)) | ++ (0.5–1.5 ++) | 
RLGAVQNEVTLTHPITKY [NS3_601-618] | weak (0.2–0.5: weak binders (+)) | + (Fluorescence index of H-2D^b: 0.2–0.5 +) | 
SIINFEKL [OVA257-264] |  |  | Fluorescence index (FI), stabilization of H-2K^b (H-2K^b; short peptides at 100 μM, strong binders): > 8; plateau of stabilization of H-2K^b molecules (H-2K^b; short peptides, up to high peptide concentration (100 μM)): not detectable; MHC I Stabilization Assay, fluorescence index class, H-2K^b (H-2K^b; short synthetic peptides, serially diluted (Figure 2b)): +++ (>8 +++); MHC I Stabilization Assay, fluorescence index class, H-2D^b (H-2D^b; short synthetic peptides, serially diluted (Figure 2a)): ++ (0.5–1.5 ++)
VPAAYAAQGYKVLVL [NS3_214-228] | intermediate (0.5–1.5: intermediate binders (++)) | ++ (0.5–1.5 ++) | H-2K^b binder class (weak, intermediate, strong) by stabilization of MHC class I on RMA-S cells (H-2K^b; synthetic long peptides, 10 μM (Figure 1b), in words): weak (0.2–2: weak binders (+)); MHC I Stabilization Assay, fluorescence index class, H-2K^b (H-2K^b; [1]): + (Fluorescence index of H-2K^b: 0.2–2 +)
